Measurements published in article PMC10107996, “Release of hepatitis B virions is positively regulated by glucose‐regulated protein 78 through direct interaction with preS1” (Journal of Medical Virology, 2022).
Entries after “also recorded” stand apart in the source; their conditions may differ. No end group written: not given here.

B1: GST-preS1-p3 (residues 66-119) (domain or fragment)
chain: GFTPPHGGLLGWSPQAQGILTTLPAAPPPASTNRQSGRQPTPISPPLRDSHPQA
modifications: also: GST fusion
B2: GST-preS1-p2 (residues 25-90) (domain or fragment)
chain: FPDHQLDPAFGANSNNPDWDFNPNKDHWPEANQVGAGAFGPGFTPPHGGLLGWSPQAQGILTTLPA
modifications: also: GST fusion
B3: pep56 (19-DPAFGANSL-29) (peptide)
peptide: DPAFGANSL
notes: also called pepp56; source: designed hydrophobic peptide of preS1
B4: pep59 (70-QGIMQTVPAN-80) (peptide)
peptide: QGIMQTVPAN
notes: source: designed hydrophobic peptide of preS1

Legend:
[1] = molecular target: T1, recombinant GRP78 (Homo sapiens, UniProt P11021); assay: Isothermal titration calorimetry (ITC) with recombinant GRP78; assay type: binding
T1 construct: His; made in house; host or cells: Escherichia coli BL21
T1 sequence (P11021 19-654): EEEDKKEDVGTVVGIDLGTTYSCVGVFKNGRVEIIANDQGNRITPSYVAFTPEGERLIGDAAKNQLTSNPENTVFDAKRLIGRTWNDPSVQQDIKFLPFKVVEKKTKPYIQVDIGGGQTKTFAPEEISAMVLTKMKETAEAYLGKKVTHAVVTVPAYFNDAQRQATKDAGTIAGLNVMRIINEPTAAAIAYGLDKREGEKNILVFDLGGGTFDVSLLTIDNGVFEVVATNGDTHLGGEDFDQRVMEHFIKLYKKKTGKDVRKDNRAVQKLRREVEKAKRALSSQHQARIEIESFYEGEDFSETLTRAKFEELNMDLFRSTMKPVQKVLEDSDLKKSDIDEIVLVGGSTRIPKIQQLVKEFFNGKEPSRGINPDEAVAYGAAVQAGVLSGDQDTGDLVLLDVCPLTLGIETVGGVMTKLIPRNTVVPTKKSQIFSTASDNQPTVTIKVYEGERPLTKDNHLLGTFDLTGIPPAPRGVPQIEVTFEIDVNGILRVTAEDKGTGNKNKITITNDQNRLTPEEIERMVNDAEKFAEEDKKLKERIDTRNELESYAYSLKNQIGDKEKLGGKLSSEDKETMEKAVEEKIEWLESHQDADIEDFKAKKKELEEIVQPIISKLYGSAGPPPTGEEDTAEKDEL
Procedure: Additionally, we collected purified recombinant GRP78 protein (Supporting Information: Figure S2) and HBV‐enveloped particles from the cell supernatant, followed by separation by ultracentrifugation at 4°C for isothermal titration calorimetry (ITC) experiments. […] These findings confirmed the ability of HBV to promote GRP78 expression and identified that GRP78 directly interacts with preS1 and HBV‐enveloped particles.
Affinity constants under equilibrium (Ka) were obtained using a Nano ITC instrument. GRP78 protein solution (300 µL) was titrated with repeated injections of 40 µL solution until saturation at 25 °C. Nano Analyze software was used for the integration of heat signals and nonlinear regression analysis of the data.

[2] = test system: HBV‐enveloped particle release from HepG2.2.15 cells; assay: HBV-enveloped particle release and viral DNA content, particle gel assay and qPCR, HepG2.2.15 cells; assay type: cell-based, hepatitis B virus; conditions: for inhibition of GRP78-enhanced enveloped‐particle release and viral DNA content: GRP78‐overexpressing HepG2.2.15 cells
Procedure: (§1) HBV virions were identified by particle gel assay.[25] HBV‐producing cells were cultured, followed by harvesting of the culture medium. Cell supernatant was added to 35% PEG8000 and shaken at 4°C for >2 h. The viral particles were dissolved in TNE buffer, incubated overnight at 4°C, and subjected to agarose gel electrophoresis. The samples were transferred to a nitrocellulose membranes, treated with methanol for 30 min, blocked with 5% nonfat milk, and incubated with anti‐preS1 (for enveloped particles) or anti‐HBc (for capsid particles) antibodies for 1 h at 20°C. Following incubation with an antimouse secondary antibody (1:10,000) at 4°C overnight, the membrane was visualized using the an enhanced chemiluminescence western blot detection kit (Beyotime Biotech).

[3] = test system: HBV‐enveloped particle release from HepAD38 cells; assay: HBV-enveloped particle release, particle gel assay, HepAD38 cells; assay type: cell-based, hepatitis B virus
Procedure: as §1

[4] = molecular target: T2, purified recombinant GRP78 protein (human, UniProt P11021 19-654); assay: MST; purified truncated GST-preS1 proteins with GRP78; conditions: both partners purified
T2 construct: source: recombinant, purified
T2 sequence (P11021 19-654): as above

[5] = molecular target: T2, purified recombinant GRP78 protein; assay: ITC; recombinant GRP78 with preS1 peptides; conditions: both partners purified
[6] = synthesized peptide and recombinant GRP78, 25 °C

| Molecule | N (sites) [1, 6] | △H [1, 6] | further results |
| --- | --- | --- | --- |
| FHSHHNRPMKSP [GBP63, phage-display 12-mer peptide […]] | 0.248±3.22 sites | 8.83 ± 119 kcal/mol | – |
| GSWNTFRAQPTI [GBP64, phage-display 12-mer peptide […]] | 2.88±0.501 sites | 0.486 ± 0.186 kcal/mol | – |
| LTPHKHHKHLHA [GBP65] | 10.0±1.05 sites | 2.58 ± 0.647 kcal/mol | – |
| MKAHHSQLYPRH [GBP66, phage-display 12-mer peptide […]] | 10.0±2.38 sites | 1.55 ± 0.647 kcal/mol | – |
| QPTPISPPLRN [pep60, hydrophobic preS1 peptide 91‐[…]‐102] | – | – | interaction with GRP78 in words ([1]; 25 °C): weak interaction; inhibition of GRP78-enhanced enveloped‐particle release and viral DNA content ([2]; n = 3): minimal effects |
| SNIGALQFLPPP [GBP67, phage-display 12-mer peptide […]] | negative | negative | KD [1, 6]: negative |
| VTTVGMPNKSFF [GBP68] | 5.79±0.738 sites | 3.49 ± 0.881 kcal/mol | effect on abundance of cytoplasmic viral particles and core particle release ([2]; HepG2.2.15 and HepAD38 cells, particle gel assay with anti‐HBcAg and anti‐preS1 antibodies): negligible effects; inhibitory effect on HBV‐enveloped particle release and viral DNA content in supernatant ([2]; HepG2.2.15 cells, particle gel assay with anti‐preS1 antibody and qPCR, n = 3): significantly stronger inhibitory effect; also recorded: dose‐dependent manner; inhibition of enveloped‐particle release [3]: dose‐dependent manner |
| WDLAWMFRLPVG [pep415, reference compound] | – | – | inhibition of GRP78-enhanced enveloped‐particle release and viral DNA content ([2]; n = 3): inhibited |
| B1 | – | – | Kd [4]: 431 nM |
| B2 | – | – | Kd [4]: 1200 nM |
| B3 | – | – | Kd [5]: 6.59 nM |
| B4 | – | – | Kd [5]: 10.6 nM |
